From PubChem BioAssay (NCI)
“And” between values parts separate entries of the source, which are not always exact repeats. Equal values may be shown once.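 96-well plates; 48 h exposure; 5 concentrations. Endpoints by linear interpolation between flanking doses. Not reached: highest tested concentration assigned. Abbreviation: GI50, concentration required for 50% inhibition of growth. TGI: total growth inhibition.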

Assays:
Assay in all cases: DTP human tumour cell line panel, 48 h
SR leukemia = test system: SR leukemia
LOX IMVI melanoma = test system: LOX IMVI melanoma
CAKI-1 renal = test system: CAKI-1 renal
COLO 205 colon = test system: COLO 205 colon
BT-549 breast = test system: BT-549 breast
A549 NSCLC = test system: A549 NSCLC
M14 melanoma = test system: M14 melanoma
SK-MEL-28 melanoma = test system: SK-MEL-28 melanoma
HOP-62 NSCLC = test system: HOP-62 NSCLC
NCI-H226 lung = test system: NCI-H226 lung

SMILES	GI50 (SR leukemia)	TGI (SR leukemia) [µM]	GI50 (LOX IMVI melanoma)	TGI (LOX IMVI melanoma)	GI50 (CAKI-1 renal)	TGI (CAKI-1 renal)	GI50 (COLO 205 colon)	TGI (COLO 205 colon)	GI50 (BT-549 breast)	TGI (BT-549 breast)	GI50 (A549 NSCLC)	TGI (A549 NSCLC)	GI50 (M14 melanoma)	TGI (M14 melanoma)	GI50 (SK-MEL-28 melanoma)	TGI (SK-MEL-28 melanoma)	GI50 (HOP-62 NSCLC)	TGI (HOP-62 NSCLC)	GI50 (NCI-H226 lung)	TGI (NCI-H226 lung)
COc1cc(NC(=O)c2ccccc2Nc2ccnc(C(F)(F)F)c2)cc(OC)c1OC	47.3 µM	> 100	75.6 µM	> 100 µM	50.4 µM	> 100 µM	41.9 µM	> 100 µM	43.5 µM	> 100 µM	58.1 µM	> 100 µM	73.3 µM	> 100 µM	> 100 µM	> 100 µM	88.9 µM	> 100 µM	77.7 µM	> 100 µM
COc1cc(Cn2c(SCC(=O)Nc3ccc(Cl)cc3)nc3ccccc3c2=O)cc(OC)c1OC	18.5 µM	> 100	13.5 µM	> 100 µM	11.3 µM	58.1 µM	73.2 µM	> 100 µM	6.42 µM	23.8 µM	4.66 µM	21.1 µM	16.5 µM	86.4 µM	11.4 µM	50.9 µM	3.1 µM	14.5 µM	4 µM	26.2 µM
CCN1C(=O)N(CC)C2C1NN=c1s/c(=C\c3ccc(OC)cc3)c(=O)n12 (stereo unspecified)	0.0444 µM		0.233 µM	> 100 µM	0.0577 µM	> 80.2 µM	0.192 µM	0.616 µM	0.288 µM	> 25.1 µM	0.247 µM	> 100 µM	0.172 µM	> 100 µM	0.953 µM	> 100 µM	0.381 µM	> 59.4 µM	1.72 µM	
CS(=O)(=O)N1CCc2c(-c3cnc(N)nc3)nc(N3CCOCC3)nc21	2.08 µM and 1.96 µM	> 100	0.579 µM and 0.406 µM	> 94.2 µM	0.484 µM and 0.651 µM	> 10 µM and 7.76 µM	0.444 µM and 0.516 µM	> 10 µM and 13 µM	0.51 µM and 0.479 µM	6.08 µM and 6.39 µM	0.644 µM and 0.413 µM	> 10 µM and 5.45 µM	1.43 µM and 0.625 µM	> 41 µM	0.646 µM and 0.695 µM	8.18 µM and 13.1 µM	1.26 µM and 0.795 µM	> 10 µM and 11.8 µM	0.52 µM and 0.343 µM	9.45 µM and 12.5 µM
COc1ccc2c(c1)N(CCO)C1=C(C(=O)OC1)C2c1ccc(OC)c(OC)c1 (stereo unspecified)	3.68 µM	> 100	4.89 µM	> 100 µM	3.05 µM	> 100 µM	2.53 µM	5.93 µM	2.98 µM	9.74 µM	3.86 µM	> 100 µM	2.44 µM	> 100 µM	3.33 µM	> 100 µM	4.89 µM	> 100 µM	2.29 µM	9.55 µM
Cc1c(O)c(Br)c(C)c(O)c1Br (tested in a mixture with another compound)		3.28		3.44 µM		3.67 µM		3.6 µM		9.7 µM		60 µM		3.1 µM		3.56 µM		40.3 µM		14.8 µM
COC1=CC2CCN3Cc4cc5c(cc4C(C1O)C23)OCC5 (stereo unspecified)		> 100	0.587 µM	3.18 µM	2.49 µM	8.36 µM	0.513 µM	1.92 µM	3.94 µM	> 47 µM	1.26 µM	8.19 µM	3 µM	19.3 µM	3.46 µM	> 24.2 µM	3.61 µM	> 61.4 µM	1.72 µM	7.6 µM
C=C1C(=O)C2(C)OC2(C)C1C(=O)O (stereo unspecified)		> 100		> 100 µM		> 100 µM		> 100 µM		> 100 µM		> 100 µM		> 100 µM		> 100 µM		> 100 µM		> 100 µM
CCOC(=O)c1cc(-c2ccccc2)[nH]c1N/N=C/c1c(Cl)cccc1Cl	0.413 µM	10.2	3.05 µM	> 100 µM	0.409 µM	31.1 µM	2.71 µM	15.3 µM	1.24 µM	18.9 µM	1.92 µM	> 100 µM	1.71 µM	25.3 µM	3.35 µM	> 75 µM	2.37 µM	41.4 µM	1.5 µM	12.4 µM
CC(C)[C@H](C(=O)O[C@@H]1/C=C/C(=O)O[C@@H](C)CCC/C=C/[C@@H]2C[C@H](O)C[C@H]21)N(C)C	14.9 µM	33.8	9.59 µM	26.9 µM	19.4 µM	> 73.8 µM	3.49 µM	9.67 µM	7.13 µM	35.6 µM	14.6 µM	> 94.4 µM	11.1 µM	> 63.8 µM	5.01 µM	28 µM	17.2 µM	> 100 µM	11.2 µM	44.2 µM
CCCCCCSc1nc(COC(=O)NC)c(COC(=O)NC)n1C		> 100		> 100 µM		> 100 µM		> 100 µM		> 100 µM		> 100 µM		> 100 µM		> 100 µM		> 100 µM		> 100 µM
CC12CC(=O)C3C(CCC4=CC(=O)CCC43C)C1CC=C2CC(=O)O (stereo unspecified)		> 100		> 100 µM		> 100 µM		> 100 µM		> 100 µM		> 100 µM		> 100 µM		> 100 µM		> 100 µM		> 100 µM
CN1CCN(c2ccc(Nc3ncc4cc5n(c4n3)C3(CCCCC3)CNC5=O)nc2)CC1	0.307 µM	3.28	0.589 µM	10.4 µM	0.397 µM	14.3 µM	0.0632 µM	11.3 µM	3.35 µM	8.97 µM	1.47 µM	16.2 µM	1.76 µM	11.7 µM	3.01 µM	26 µM	1.06 µM	12.8 µM	1.27 µM	11.3 µM
Cn1cc(C2=C(c3c(S(C)=O)n(C)c4ccccc34)C(=O)NC2=O)c2ccccc21 (stereo unspecified)	2.55 µM	24.3	13.7 µM	> 25 µM	6.04 µM	> 25 µM	5.96 µM	> 18.6 µM	4.88 µM	> 25 µM	9.24 µM	> 25 µM	7.56 µM	> 25 µM	19.1 µM	> 25 µM	8.34 µM	> 25 µM	8.04 µM	> 25 µM
N[C@@H](CSSC[C@H](N)C(=O)N1CCn2cc(-c3ccccc3)nc2[C@@H]1CC1CCCCC1)C(=O)N1CCn2cc(-c3ccccc3)nc2[C@@H]1CC1CCCCC1	1.38 µM		1.34 µM	2.99 µM	1.91 µM	4.6 µM	1.79 µM	3.27 µM	2.23 µM	3.91 µM	1.37 µM	3.05 µM	0.301 µM	1.23 µM	0.529 µM	1.96 µM	1.59 µM	3.25 µM	2.02 µM	4.09 µM
N#Cc1ccc(/C=C/C(=O)c2ccccc2)cc1	1.88 µM and 1.52 µM	6.11	2.41 µM and 3.3 µM	6.12 µM and 9.23 µM	15.1 µM and 9.59 µM	29.6 µM and 22.8 µM	6.34 µM and 14.3 µM	16.3 µM and 27.9 µM	15.2 µM and 16.7 µM	29.3 µM and 30.5 µM	14.8 µM and 15.4 µM	27.9 µM and 31.8 µM	11.3 µM and 13.4 µM	> 50.5 µM and 27.8 µM	15.5 µM and 5.18 µM	28.8 µM and 14.9 µM	22 µM and 18.4 µM	> 54.9 µM and 33.8 µM	27.2 µM and 15.3 µM	> 68.8 µM and 31 µM
Nc1ccc(C(=O)Nc2ccccc2N)cc1		> 100		> 75.8 µM		> 100 µM		45.2 µM		> 100 µM		> 100 µM		> 100 µM		> 100 µM		> 100 µM		> 100 µM
